# Test results published in publication PMC7466753, “An epoxide hydrolase from endophytic Streptomyces shows unique structural features and wide biocatalytic activity” (Acta Crystallographica. Section D, Structural Biology, 2020).
# B1: B1EPH2, α/β-epoxide hydrolase from Streptomyces sp. CBMAI 2042 (enzyme)
# chain: VPQPPTDDPTTPAEKGAVHRLVDTPGGRIHLVEQGTGPLVLLVHGFPESWYSWRHQLPALAAAGYRAAAIDVRGYGRSAKPAATDAYRMLAHVADNTAVVHALGEETATVVGHDWGSPIAANSALLRPDVFTAVGLLSVPYAPRGEHRPTDGFARIGGDEEFYVSYFQAPGRAEAEIERDVRGWLAGFYTGLTGGALTPEEHGRLFFVPPGAHLADRFPTGPLPAWLTEADLDVYSGEFERSGLTGALNRYRNVDRDWEDLAAWHGAPITQPSLFIGGALDASTTWMADALDAYPATLPGLSAAHILEGCGHWIQQERPDEVNRLLTQWLDGLR
# notes: B1EPH2, putative α/β-epoxide hydrolase of Streptomyces sp; CBMAI 2042; the text says 344 amino acids; the b1eph2 ORF was amplified from genomic DNA and cloned into pET-29b(+) (plasmid pGTEPH2); Hexamer by the crystal structure (three protomers in the asymmetric unit, twofold crystallographic symmetry) and by analytical gel filtration; they are surmised from pET-29b(+) and the nickel column; also …
# How the values were obtained:
# B1EPH2 = biological target: T1, B1EPH2 (Streptomyces sp. CBMAI 2042, UniProt A0ACD6BAW7); assay: adrenaline test (periodate back-titration, […] nm); format: biochemical; details: pH 6.0 sodium phosphate; racemic substrate in DMSO
# T1 construct: gene STAN_0072; ORF in pET-29b(+), E. coli BL21(DE3), nickel IMAC and gel filtration; protomer 37 kDa, hexamer (252 kDa by gel filtration)
# [1] = biological target: the molecule itself; assay: crystal structure; X-ray, 2.2 Å, space group P4(1)22; hanging drop, 0.1 M sodium cacodylate pH 6.5, 1 M trisodium citrate, protein 12.5 mg/ml in 50 mM HEPES pH 8.0, 300 mM NaCl; three protomers in the asymmetric unit, hexamer by twofold crystallographic symmetry
molecule,measurement,setting,value
"c1ccc(OCC2CO2)cc1 (racemic) [compound 3, phenyl glycidyl ether]","% conversion relative to 1,2-cyclohexanediol",B1EPH2,25%
B1,stoichiometry N,[1],6
